Results reported in patent publication US20220220128A1, “HETEROCYCLIC COMPOUNDS AS KINASE INHIBITORS, COMPOSITIONS COMPRISING THE HETEROCYCLIC COMPOUND, AND METHODS OF USE THEREOF” (JS Innopharm (Shanghai) Ltd, priority 2019, published 2022).

Tests used:
human RET kinase = biological target: T1, human RET kinase (Homo sapiens, UniProt P07949); test: RET Kinase Assay (LanthaScreen TR-FRET enzymatic assay); format: biochemical; conditions: 7 nM RET, 23 μM ATP
T1 construct: purchased Carna 08-159
In short: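 Human RET (7 nM) preincubated 15 min with compound in 50 mM HEPES pH 7.5, 0.0015% Brij-35, then reacted with 3 μM FAM-P2 peptide and 23 μM ATP for 1 h at 28° C.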

BAF3-KIF5B-RET cells = biological target: T2, BAF3-KIF5B-RET cells (Homo sapiens, UniProt P07949); test: BAF3-KIF5B-RET Cell proliferation assay (CellTiter-Glo, 72 hours); format: cell-based; conditions: growth inhibition, read-out: BA/F3-KIF5B-RET Cellular activity
T2 construct: fused on or other part: P33176 (Kinesin-1 heavy chain)
T2 sequence (P07949 whole entry, change not shown, the tested form may be a part): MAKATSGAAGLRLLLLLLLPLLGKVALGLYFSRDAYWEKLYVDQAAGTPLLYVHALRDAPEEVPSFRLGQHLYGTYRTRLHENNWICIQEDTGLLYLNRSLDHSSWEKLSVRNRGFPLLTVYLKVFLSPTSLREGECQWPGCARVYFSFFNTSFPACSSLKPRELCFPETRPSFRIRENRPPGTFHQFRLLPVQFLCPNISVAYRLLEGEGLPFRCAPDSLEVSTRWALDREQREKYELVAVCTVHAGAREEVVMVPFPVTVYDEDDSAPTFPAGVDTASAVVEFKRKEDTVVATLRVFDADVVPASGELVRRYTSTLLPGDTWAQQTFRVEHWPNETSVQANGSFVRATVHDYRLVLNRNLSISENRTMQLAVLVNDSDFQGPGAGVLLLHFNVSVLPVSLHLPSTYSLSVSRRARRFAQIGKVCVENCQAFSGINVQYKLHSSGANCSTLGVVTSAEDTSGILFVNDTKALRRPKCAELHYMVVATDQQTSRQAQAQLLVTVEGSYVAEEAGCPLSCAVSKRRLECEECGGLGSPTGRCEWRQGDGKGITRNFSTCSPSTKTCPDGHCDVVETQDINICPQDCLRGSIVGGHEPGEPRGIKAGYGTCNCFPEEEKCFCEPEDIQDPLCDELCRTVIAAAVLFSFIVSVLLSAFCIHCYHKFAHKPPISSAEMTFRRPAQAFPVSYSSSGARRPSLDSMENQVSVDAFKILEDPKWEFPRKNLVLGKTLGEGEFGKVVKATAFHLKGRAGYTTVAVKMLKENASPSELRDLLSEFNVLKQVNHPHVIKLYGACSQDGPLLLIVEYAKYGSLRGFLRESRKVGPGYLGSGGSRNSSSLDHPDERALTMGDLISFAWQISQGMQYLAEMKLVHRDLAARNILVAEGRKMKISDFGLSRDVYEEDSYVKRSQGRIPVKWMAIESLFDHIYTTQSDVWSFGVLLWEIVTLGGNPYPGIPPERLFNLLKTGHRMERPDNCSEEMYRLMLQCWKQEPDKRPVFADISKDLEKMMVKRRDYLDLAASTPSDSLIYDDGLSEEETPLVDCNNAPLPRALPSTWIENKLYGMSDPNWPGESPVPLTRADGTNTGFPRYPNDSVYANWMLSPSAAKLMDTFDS
Method: Compounds disclosed herein were tested for the inhibition of RET by a cancer cell proliferation assay commonly known as CellTiter-Glo assay. In this assay, a complete media was prepared by adding 10% fetal bovine serum to RPMI-1640 medium (Life technology) for BAF3-FIF5B-RET cells. BAF3-KIF5B-RET cells were added to each of 88 wells of a 96 well plate at a seeding density of 2,000 cells/well/95 μL. The cells were allowed to attach to the plate by incubating at 37° C. for 24 hours. The compound was dissolved in DMSO (SIGMA). A solution of test compound was prepared in complete media by serial dilution to obtain the following concentrations: 20 μM, 6.67 μM, 2.22 μM, 0.74 μM, 0.25 μM, 0.082 μM, 0.027 μM, 0.0091 μM and 0.0030 μM. The test compound solution (5 μL) was added to each of 80 cell-containing wells. The final concentrations of the compound were following: 1 μM, 0.33 μM, 0.11 μM, 0.037 μM, 0.012 μM, 0.0041 μM, 0.0014 μM, 0.00046 μM and 0.00015 μM. The final concentration of DMSO is 0.1%. To the 8 remaining cell-containing wells, only complete media (containing 0.1% DMSO) was added to form a control group in order to measure maximal proliferation. To the remaining 8 empty wells, complete media was added to for a vehicle control group in order to measure background. The plates were incubated at 37° C. for 72 hours. 50 μl of CellTiter-Glo® Reagent was added to each well. Mix contents for 2 minutes on an orbital shaker to induce cell lysis. Incubate at room temperature for 10 minutes to stabilize luminescent signal. Record luminescence on Paradigm. Cell viability (CV %) was calculated relative to vehicle (DMSO) treated control wells. The IC50 was calculated using GraphPad Prism.

T1 sequence (P07949 29-1114): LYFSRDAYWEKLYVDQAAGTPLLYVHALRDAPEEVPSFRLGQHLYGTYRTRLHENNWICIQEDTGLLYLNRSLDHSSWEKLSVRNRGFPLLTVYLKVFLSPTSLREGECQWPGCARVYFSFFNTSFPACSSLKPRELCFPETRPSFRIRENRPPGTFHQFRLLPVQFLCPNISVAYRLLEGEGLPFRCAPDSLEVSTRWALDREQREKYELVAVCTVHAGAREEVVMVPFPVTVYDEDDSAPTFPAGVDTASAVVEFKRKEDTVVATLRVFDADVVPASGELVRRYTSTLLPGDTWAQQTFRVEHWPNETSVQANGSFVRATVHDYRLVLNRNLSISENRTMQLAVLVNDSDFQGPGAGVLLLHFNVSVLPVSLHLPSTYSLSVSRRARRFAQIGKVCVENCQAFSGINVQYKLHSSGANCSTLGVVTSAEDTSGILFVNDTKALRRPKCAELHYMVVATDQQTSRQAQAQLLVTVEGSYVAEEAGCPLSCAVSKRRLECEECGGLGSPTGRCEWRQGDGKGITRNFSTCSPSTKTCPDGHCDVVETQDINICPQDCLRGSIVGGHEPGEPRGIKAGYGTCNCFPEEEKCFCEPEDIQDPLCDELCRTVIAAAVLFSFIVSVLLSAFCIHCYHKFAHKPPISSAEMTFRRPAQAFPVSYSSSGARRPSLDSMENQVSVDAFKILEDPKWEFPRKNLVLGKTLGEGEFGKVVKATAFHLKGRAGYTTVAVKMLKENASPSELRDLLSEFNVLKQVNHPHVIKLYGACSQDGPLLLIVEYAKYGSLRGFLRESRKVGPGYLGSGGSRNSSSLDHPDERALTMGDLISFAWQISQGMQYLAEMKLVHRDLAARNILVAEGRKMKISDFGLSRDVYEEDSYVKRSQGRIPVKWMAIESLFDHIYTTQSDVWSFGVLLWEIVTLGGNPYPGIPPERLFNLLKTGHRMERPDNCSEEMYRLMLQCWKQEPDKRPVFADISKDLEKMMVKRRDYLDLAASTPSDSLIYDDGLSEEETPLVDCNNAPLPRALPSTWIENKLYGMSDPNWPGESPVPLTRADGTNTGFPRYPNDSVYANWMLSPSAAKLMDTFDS

Structure (SMILES) | IC50 (human RET kinase) [nM] | GI50 (BAF3-KIF5B-RET cells) [nM]
CC(C)(O)COc1cc(-c2ccc(N3C[C@H]4C[C@@H](NC(=O)c5ncccc5Cl)C[C@H]4C3)nc2)c2c(C#N)cnn2c1 [Example 106, 3-chloro-N-((3aR,5r,6aS)-2-(5-(3-cyano-6-(2-hydroxy-2-methylpropoxy)pyrazolo[1,5-a]pyridin-4-yl)pyridin-2-yl)octahydrocyclopenta[c]pyrrol-5-yl)picolinamide] | ≤ 10 | ≤ 10
COc1ccc(CNC(=O)[C@H]2[C@@H]3CN(c4ccc(-c5cc(OCC(C)(C)O)cn6ncc(C#N)c56)cn4)C[C@@H]32)cn1 [Example 119, (1R,5S,6r)-3-(5-(3-cyano-6-(2-hydroxy-2-methylpropoxy)pyrazolo[1,5-a]pyridin-4-yl)pyridin-2-yl)-N-((6-methoxypyridin-3-yl)methyl)-3-azabicyclo[3.1.0]hexane-6-carboxamide] | ≤ 10 | 50 to 100
CCOc1cc(-c2ccc(N3C4CC5CC3CC(NC(=O)c3ccc(OC)nc3)(C5)C4)nc2)c2c(C#N)cnn2c1 [Example 139, N-((1R,3S,5s,7s)-2-(5-(3-cyano-6-ethoxypyrazolo[1,5-a]pyridin-4-yl)pyridin-2-yl)-2-azaadamantan-5-yl)-6-methoxynicotinamide] | ≤ 10 | 50 to 100
Cn1cc(-c2cc(-c3cnc(N4C5CC6CC4CC(NC(=O)OC(C)(C)C)(C6)C5)cn3)c3c(C#N)cnn3c2)cn1 [Example 109, tert-butyl ((1R,3S,5s,7s)-2-(5-(3-cyano-6-(1-methyl-1H-pyrazol-4-yl)pyrazolo[1,5-a]pyridin-4-yl)pyrazin-2-yl)-2-azaadamantan-5-yl)carbamate] | ≤ 10 | ≤ 10
CC(C)(O)COc1cc(-c2ccc(N3C[C@@H]4[C@H](C3)[C@H]4C(C)(C)NC(=O)c3ncccc3Cl)nc2)c2c(C#N)cnn2c1 [Example 129, 3-chloro-N-(2-((1R,5S,6r)-3-(5-(3-cyano-6-(2-hydroxy-2-methylpropoxy)pyrazolo[1,5-a]pyridin-4-yl)pyridin-2-yl)-3-azabicyclo[3.1.0]hexan-6-yl)propan-2-yl)picolinamide] | 10 to 50 | 50 to 100

Continued, values first:

IC50 (human RET kinase) [nM] | GI50 (BAF3-KIF5B-RET cells) [nM] | Structure (SMILES)
≤ 10 | ≤ 10 | COc1cccnc1C(=O)N[C@]1(C)C[C@H]2CN(c3cnc(-c4cc(-c5cnn(C)c5)cn5ncc(C#N)c45)cn3)C[C@H]2C1 [Example 151, N-((3aR,5s,6aS)-2-(5-(3-cyano-6-(1-methyl-1H-pyrazol-4-yl)pyrazolo[1,5-a]pyridin-4-yl)pyrazin-2-yl)-5-methyloctahydrocyclopenta[c]pyrrol-5-yl)-3-methoxypicolinamide]
≤ 10 | ≤ 10 | Cn1cc(-c2cc(-c3ccc(N4C[C@@H]5C[C@](C)(NC(=O)c6ncccc6Cl)C[C@@H]5C4)nc3)c3c(C#N)cnn3c2)cn1 [Example 173, 3-chloro-N-((3aR,5r,6aS)-2-(5-(3-cyano-6-(1-methyl-1H-pyrazol-4-yl)pyrazolo[1,5-a]pyridin-4-yl)pyridin-2-yl)-5-methyloctahydrocyclopenta[c]pyrrol-5-yl)picolinamide]
50 to 100 | > 100 | COc1ccc(C(=O)NC[C@@H]2[C@H]3CN(c4cnc(-c5cc(OCC(C)(C)O)cn6ncc(C#N)c56)cn4)C[C@@H]23)cn1 [Example 155, N-(((1R,5S,6s)-3-(5-(3-cyano-6-(2-hydroxy-2-methylpropoxy)pyrazolo[1,5-a]pyridin-4-yl)pyrazin-2-yl)-3-azabicyclo[3.1.0]hexan-6-yl)methyl)-6-methoxynicotinamide]
≤ 10 | ≤ 10 | COc1ccc(NC(=O)C23CC4CC(C2)N(c2ccc(-c5cc(-c6cnn(C)c6)cn6ncc(C#N)c56)cn2)C(C4)C3)cn1 [Example 189, (1R,3S,5s,7s)-2-(5-(3-cyano-6-(1-methyl-1H-pyrazol-4-yl)pyrazolo[1,5-a]pyridin-4-yl)pyridin-2-yl)-N-(6-methoxypyridin-3-yl)-2-azaadamantane-5-carboxamide]
